Like-named read-outs stand apart in the source and are kept apart here.
Experiments:
[1] = tested on: male CD [Crl:CD(SD)] rats; assay: Conditioned place preference (CPP) study, abuse liability assessment; type: in vivo, rat; conditions: for Conditioned place preference score for CS+ (percentage of time in the 2 conditioning compartments), Mean / Conditioned place preference score for CS+, LSMean (least squares mean): 20 mg/kg oral gavage (positive control)
Experimental: Purpose: A conditioned place preference (CPP) study was conducted in rats to evaluate the abuse potential of exemplary aqueous A. muscaria extract AME-1. The CPP study is a standard behavioral model used for studying the reward and aversive effects of a compound and is designed to determine the reinforcing properties of drugs of abuse using classical Pavlovian conditioning. Accordingly, the CPP paradigm provides for a rapid measurement of the positive reinforcing or aversive properties of a test sample, in this case, AME-1.
Methods: Four treatment groups of 8 male CD® [Crl:CD®(SD)] rats were exposed to unique environmental cues associated with a conditioned stimuli (CS+) or saline (CS−) in a 3-chamber straight alleyway system. Following a habituation phase (Week −1) during which compartment preference was determined for each animal, the conditioning phase (Week 1 and Week 2) was conducted during which compartments 1 and 3 were paired with the test and control articles or saline. Saline (CS−) and test/control articles (CS+, at 800 and 1100 mg/kg of exemplary A. muscaria aqueous extract AME-1 or 20 mg/kg cocaine) were administered via oral gavage at a dose volume of 5 mL/kg. After two sets of conditioning trials during the conditioning phase, each rat was retested for free-choice side preference (Days 5 and 12). Each rat received eight stimulus environmental pairing sessions (e.g., four test article and four saline) and two CPP test sessions (T1, T2). The study design was as follows:
The following parameters and endpoints were evaluated in this study: mortality, clinical signs, body weights, and CPP testing. During CPP testing sessions, the following parameters were assessed: 1) Total time spent in the black and/or white (Compartment 1 and 3) compartments, which were used to calculate the “preference score,” and these values expressed as a percentage of time in the two conditioning compartments; 2) Total number of beam breaks in each conditioning compartment; and 3) Preference score expressed as a percentage of time in the 2 conditioning compartments. Only preference scores for the CS+ expressed as a percentage of time in the 2 conditioning compartments were reported. A CPP was determined when the test subject spent more time in the test sample-paired compartment versus the vehicle-paired compartment. Conversely, a conditioned place aversion (CPA) was determined when the test subject spent more time in the vehicle-paired compartment versus the sample-paired compartment. Therefore, possible outcomes included whether AME-1 causes a dependence, an aversive effect, or no effect. The total time spent in the nonpreferred compartment+total time spent in both conditioning compartments was expressed as a percentage, and used as a measure of “side preference.” Side preference infers a hedonic valence for the environmental cues of the compartment. Initial side preferences/biases (Habituated Score-H) were used to determine which of two compartments would be paired with the targeted interoceptive states. After two CS-UCS pairings, groups were retested for side preference (Test 1-1; Test 2-2). A significant change score from the initial habituation test scores reflected a conditioned place approach (* p<0.05).

[2] = tested on: levels of serotonin (5-hydroxytryptamine), noradrenaline and dopamine in the brain; conditions: male rats and mice, cited from earlier work
GABA receptor = conditions: cited from earlier work; for Mechanism of action at the GABA receptor: Brehm et al., Walker et al.
[3] = stomach, liver and brain; cited from earlier work
[4] = after ingestion of Amanita mushrooms; cited from earlier work
[5] = cited from earlier work

COC(=O)[C@H]1[C@@H](OC(=O)c2ccccc2)C[C@@H]2CC[C@H]1N2C [Cocaine]
Conditioned place preference score for CS+ (percentage of time in the 2 conditioning compartments), Mean ([1]; Habituation): 39.593
Conditioned place preference score for CS+, LSMean (least squares mean) ([1]; Habituation): 39.162
Conditioned place preference score for CS+ (percentage of time in the 2 conditioning compartments), Mean ([1]; Overall): 49.665
Conditioned place preference score for CS+, LSMean (least squares mean) ([1]; Overall, different from Groups 1 and 3, p < 0.05): 49.639^a, f
Conditioned place preference score for CS+ (percentage of time in the 2 conditioning compartments), Mean ([1]; Test 1): 61.194
Conditioned place preference score for CS+, LSMean (least squares mean) ([1]; Test 1): 61.877
Conditioned place preference score for CS+ (percentage of time in the 2 conditioning compartments), Mean ([1]; Test 2): 48.208
Conditioned place preference score for CS+, LSMean (least squares mean) ([1]; Test 2): 47.822
Outcome of CPP testing: conditioned place preference ([1]; 20 mg/kg oral gavage, positive control): did produce a CPP

N[C@H](C(=O)O)c1cc(O)no1 [ibotenic acid, (S)-2-Amino-2-(3-hydroxyisoxazol-5-yl) acetic acid]
Effect on brain levels of serotonin, noradrenaline and dopamine ([2]; 16 mg/kg intraperitoneally): affect the levels of serotonin (5-hydroxytryptamine), noradrenaline and dopamine in the brain
Mechanism of action at the GABA receptor (GABA receptor): activation of the GABA receptor
Metabolic fate [3]: metabolized by decarboxylation in the stomach, liver, and brain to equal amounts of muscimol
Time of detection in urine after ingestion [4]: detected within an hour after ingestion

NCc1cc(=O)[nH]o1 [muscimol, 5-(Aminomethyl)-1,2-oxazol-3(2H)-one]
Amount of the dose injected that crossed to the brain ([5]; IV 8 μmol/kg 3H-muscimol, 150 g male Sprague Dawley rat): approximately 0.02%
Muscimol amount in the brain ([5]; IV 8 μmol/kg 3H-muscimol, male Sprague Dawley rat): approximately 200 pmol/g tissue
Distribution at various brain regions ([5]; IV 8 μmol/kg, male Sprague Dawley rat): highest muscimol concentration being in the substantia nigra, the colliculi and the hypothalamus
Time until blood concentration was below limits of detection ([5]; after intravenous injection, rat): ≤ 180 min
Distribution in the corneum stratum compared to the hypothalamus, hippocampus and cortex ([5]; intracerebroventricular injection 1200 nmol/kg, rat): approximately 2 times
Tolerability (reports of adverse effects or toxicity) ([5]; intravenous injection 8 μmol/kg, rat): well-tolerated
Effect on brain levels of serotonin, noradrenaline and dopamine ([2]; 3 mg/kg intraperitoneally): affect the levels of serotonin (5-hydroxytryptamine), noradrenaline and dopamine in the brain
Mechanism of action at the GABA receptor (GABA receptor): activation of the GABA receptor
GABA agonist affinity and efficacy (GABA receptor; Worms et al.): GABA agonist of high affinity but of relatively low efficacy
Time of detection in urine after ingestion [4]: detected within an hour after ingestion

Reference: patent US20240269206A1, “AMANITA […] EXTRACTS AND COMPOUNDS AND THEIR […] […] USE” (priority 2021, published 2024)
